Experimental data as given in patent publication US20020098186A1, “Use of endothelin inhibitors for treatment or prevention of fibrotic disorders” (priority 1999, published 2002).

Tested on: liver collagen
Assay: Liver collagen (hydroxyproline) content in BDO rats
Assay type: in vivo, rat
Procedure: Female adult wistar rats, average weight 206±19 g, underwent the following microsurgical procedure under an operating microscope (OPMI 6-2, Zeiss, Germany) (B. Gerling, M. Becker, J. Waldschmidt, D. Schuppan (1996). J. Hepatol. 25:79-84; G. Boigk, L. Stroedter, H. Herbst H, et al. (1997). Hepatology 26:643-639.): 1. midline abdominal incision following anaesthesia with 100 mg/kg ketamine-hydroochloride (Ketanest®, Parke-Davis, Germany) and 10 mg/kg 5,6-dihydro-2-(2,6-xylidino)-4H-1,3-thiazine-hydrochloride (Rompun®, Bayer, Germany); 2. dissection of the common bile duct, insertion of a teflon catheter (Abbocath -T 26 G, venisystems, U.S.A.) and placement of a distal complete and a proximal incomplete ligature with 5-0 silk (Permahand , Ethicon, Germany); 3. retrograde injection of sodium-amidotrizoate (Ethibloc®, Ethicon Germany) at a dose of 0.02 ml/100 g body weight; 4. removal of the catheter, closure of the proximal ligature, scission of the bile duct between the ligatures and wound closure. After bile duct occlusion (BDO), animals received normal chow (Altromin®, Lage, Germany) and were allowed free access to water. […] The following therapeutic groups were formed: 1. BDO and LU at 80 mg/kg/d for 6 weeks (BDO 80/1-6:n=20); 2. BDO and LU at 80 mg/kg/d from week 4-6 of BDO (BDO 80/4-6:n=20); 3. BDO and LU at 10 mg/kg/d (sham 80/ 1-6:n=10), rats without medication (control: n=10) and bile duct occluded animals without treatment for 6 weeks (BDO: n=20) served as controls. […]
Hydroxyproline (HYP) was quantified in duplicates from 0.2 g of formalin-fixed liver as described (d. Schuppan, J. M. Dumont, K. Y. Kim, et al (1986). J. Hepatol. 3:27-37; C. Genovese; D. Rowe; B. Kream (1984). Biochemistry 23. 6210-6216.). […] Absorption was read at 558 nm and HYP concentrations were determined from a standard curve with 0 to 1.6 μg HYP (Merck, Germany). The hepatic HYP concentration was calculated using the formula [formula]
and the total liver HYP content calculated by multiplication with the liver weight.

With `COc1cc(OC)nc(O[C@H](C(=O)O)C(OC)(c2ccccc2)c2ccccc2)n1` [LU] the “Reduction of relative liver collagen” value (10 mg/kg/d over 6 weeks of BDO) was 35%, the “Reduction of hepatic collagen” value (80 mg LU/kg/d from week 4-6 after BDO, p<0.001) was roughly 50% and the “Reduction of liver collagen (both as relative and total liver collagen content)” value (80 mg LU/kg/d over the 6 weeks of BDO, vs untreated BDO, p<0.001) was 50-55%.
